# In patent US20250064951A1, “DENDRITIC POLYELECTROLYTE ZWITTERIONS, JANUS-TYPE CONJUGATE COMPRISING SAME AND USES THEREOF” (ArtProBio Co., Ltd., priority 2023, published 2025):
# What was measured:
# BALB/c nude mice = test: In vivo delivery of EGFP mRNA complex, eGFP imaging by IVIS; settings: subcutaneous injection, 0.1 mg/kg
# Experimental: The complex ((+6)2(−6)2_conjugate 2_complex) was subcutaneously injected into BALB/c nude mice at 0.1 mg/kg, and then the expressed eGFP (enhanced green fluorescenct protein) was imaged and quantified with IVIS (in vivo imaging system). As a control group, only EGFP mRNA was used instead of the complex.
# HeLa cells = test: EGFP mRNA complex delivery and eGFP expression in HeLa cells by flow cytometry; assay type: cell-based; settings: complex with EGFP mRNA
# Experimental: HeLa cells were subcultured in DMEM supplemented with 10% FBS (fetal bovine serum), dispensed into each well at 1-3×10^4 cells/well, and cultured at 37° C. for 24 hours. The cells were treated with the (+6)2(−6)2_conjugate 2_complex or the (+6)2(−6)2_conjugate 3_complex at a concentration of […], respectively, and incubated at 37° C. for 4 hours. Afterwards, the cells were washed with Dulbecco's phosphate-buffered saline (DPBS), trypsinized, and resuspended in DPBS supplemented with 10% cell dissociation buffer (GIBCO) and 1% FBS. Then, the expressed eGFP (enhanced green fluorescent protein) was analyzed using a flow cytometer (BD LSR II SORT flow cytometer, BD Bioscience, USA).
smiles,measurement,setting,value
CCCCCCCCCCCCCCCCCCC[C@H](CCCCNC(=O)CCCCCCCCCCCCCCC)C(=O)NCCCCC(NC(=O)[C@H](CCCCNC(=O)[C@H](CCCCNC(=O)[C@H](CCC(=O)O)NC(=O)[C@H](CCC(=O)O)NC(=O)[C@H](CCC(=O)O)NC(=O)[C@H](CCC(=O)O)NC(=O)[C@H](CCC(=O)O)NC(=O)[C@H](CCC(=O)O)NC(C)=O)NC(=O)[C@H](CCCNC(=N)N)NC(=O)[C@H](CCCNC(=N)N)NC(=O)[C@H](CCCNC(=N)N)NC(=O)[C@H](CCCNC(=N)N)NC(=O)[C@H](CCCNC(=N)N)NC(=O)[C@H](CCCNC(=N)N)NC(C)=O)NC(=O)[C@H](CCCCNC(=O)[C@H](CCC(=O)O)NC(=O)[C@H](CCC(=O)O)NC(=O)[C@H](CCC(=O)O)NC(=O)[C@H](CCC(=O)O)NC(=O)[C@H](CCC(=O)O)NC(=O)[C@H](CCC(=O)O)NC(C)=O)NC(=O)[C@H](CCCNC(=N)N)NC(=O)[C@H](CCCNC(=N)N)NC(=O)[C@H](CCCNC(=N)N)NC(=O)[C@H](CCCNC(=N)N)NC(=O)[C@H](CCCNC(=N)N)NC(=O)[C@H](CCCNC(=N)N)NC(C)=O)C(N)=O (stereo partly drawn) [Example 7],in vivo mRNA delivery and eGFP protein expression (IVIS),BALB/c nude mice,successfully delivered the mRNA in vivo
same,delivery of EGFP mRNA into cells,"HeLa cells; 16 M or 32 M, 4 hours",successfully delivered the mRNA into the nucleus and cytoplasm of the cells
same,efficiency of eGFP protein expression from internalized EGFP mRNA,HeLa cells; flow cytometry,82.9%
